# From ChEMBL document CHEMBL1138757, “Synthesis and photosensitizing efficacy of isomerically pure bacteriopurpurinimides” (2004)
# Tests used:
# [1] = tested on: Mus musculus; assay: In vivo photosensitizing efficacy when evaluated in mice assessed on day 90; assay type: functional
# [2] = species on record: Mus musculus; assay: In vitro Efficacy to destroy the RIF tumor cells by MTT assay when incubated for 3 hr at drug concentration of 1.5 uM and exposed to laser light (780nm,16J/cm2); assay type: functional
Structure (SMILES),Efficacy [1],Efficacy [2] [%]
CCCCCCCO[C@@H](C)C1=C(C)c2cc3[nH]c(c4c5[nH]c(cc6nc(cc1n2)[C@H](C)[C@H]6CC)c(C)c5C(=O)N(CCCCCC)C4=O)[C@@H](CCC(=O)OCCC)[C@@H]3C,2 No. of mice tumor free,100
CCCCCCCO[C@H](C)C1=C(C)c2cc3[nH]c(c4c5[nH]c(cc6nc(cc1n2)[C@H](C)[C@H]6CC)c(C)c5C(=O)N(CCCCCC)C4=O)[C@@H](CCC(=O)OCCC)[C@@H]3C,6 No. of mice tumor free,100
